Measurements published in patent US3968207A, “Method of controlling fleas and ticks on cats and dogs” (priority 1975, dated 1976).

Experiments:
[1] = Toxicity (general statement); format: in vivo, dogs and cats; details: at concentrations many times that of the actual amounts employed
Ctenocephalides felis = test: 2% pressurized spray for control of fleas on dogs; format: in vivo
Method: An experiment was carried out on dogs obtained from a licensed laboratory animal dealer. These dogs were mixed breeds and of different size and sex. The dogs were individually housed in cages with absorbent paper placed under each in order to count dead fleas. A mixture containing 2% O,O,O',O'-tetramethyl O,O'-thiodi-p-phenylene phosphorothioate (active ingredient) and having the following formula was used as a pressurized spray: […]
Two tests were carried out, one with 22 dogs and the other with 21 dogs, each test using 5 control dogs. Each dog was treated with approximately 60 mg./kg. of O,O,O',O'-tetramethyl O,O'-thiodi-p-phenylene phosphorothioate using the formulation described above. Each dog was infested with 100 1-day old adult C. felis 72 hours prior to spray treatment and reinfested on a weekly basis for 7 weeks, beginning 7 days after treatment. The five control dogs were treated with a blank spray containing everything except the active ingredient. After treatment or each reinfestation, daily examinations of each dog were made up to 7 days or until no live fleas could be found. Once a live flea was found, the dog was considered still infested even though the flea population may have been low. The number of dead fleas recovered from papers under the cages are expressed as average dead on treated/average dead on control are summarized in Table XVII.

**Q.** For `COP(=S)(OC)Oc1ccc(Sc2ccc(OP(=S)(OC)OC)cc2)cc1` [O,O,O',O'-tetramethyl O,O'-thiodi-p-phenylene phosphorothioate], which toxicity [1] is on record?
**A.** The toxicity was “substantially non-toxic”.

**Q.** What about the “Percent of Dogs with Control” value (Ctenocephalides felis; 60 mg/kg 2% pressurized spray, week 0) of the same molecule?
**A.** The value was 100%.

**Q.** What about the “Percent of Dogs with Control” value (Ctenocephalides felis; 60 mg/kg 2% pressurized spray, week 1) of the same molecule?
**A.** Its value is 100%.

**Q.** And the “Percent of Dogs with Control” value (Ctenocephalides felis; 60 mg/kg 2% pressurized spray, week 2)?
**A.** Its value is 100%.

**Q.** And the “Percent of Dogs with Control” value (Ctenocephalides felis; 60 mg/kg 2% pressurized spray, week 3)?
**A.** Its value is 100%.

**Q.** What about the “Percent of Dogs with Control” value (Ctenocephalides felis; 60 mg/kg 2% pressurized spray, week 4) of the same molecule?
**A.** The value was 97.6%.

**Q.** And the “Percent of Dogs with Control” value (Ctenocephalides felis; 60 mg/kg 2% pressurized spray, week 5)?
**A.** Its value is 95.2%.

**Q.** What about the “Percent of Dogs with Control” value (Ctenocephalides felis; 60 mg/kg 2% pressurized spray, week 6) of the same molecule?
**A.** The value was 82.9%.

**Q.** What about the “Percent of Dogs with Control” value (Ctenocephalides felis; 60 mg/kg 2% pressurized spray, week 7) of the same molecule?
**A.** The value was 58.5%.

**Q.** And the “Avg. Dead on Treated, Average on Two Tests” value (shortened to “Avg. Dead on Treated, Average”) (Ctenocephalides felis; 60 mg/kg, week 0, control 2.0)?
**A.** The value was 36.3.

**Q.** What about the “Avg. Dead on Treated, Average” value (Ctenocephalides felis; 60 mg/kg, week 1, control 5.6) of the same molecule?
**A.** Its value is 41.4.

**Q.** What about the “Avg. Dead on Treated, Average” value (Ctenocephalides felis; 60 mg/kg, week 2, control 3.0) of the same molecule?
**A.** The value was 41.2.

**Q.** What about the “Avg. Dead on Treated, Average” value (Ctenocephalides felis; 60 mg/kg, week 3, control 4.8) of the same molecule?
**A.** The value was 41.2.

**Q.** And the “Avg. Dead on Treated, Average” value (Ctenocephalides felis; 60 mg/kg, week 4, control 5.2)?
**A.** Its value is 40.7.

**Q.** And the “Avg. Dead on Treated, Average” value (Ctenocephalides felis; 60 mg/kg, week 5, control 5.6)?
**A.** Its value is 36.0.

**Q.** And the “Avg. Dead on Treated, Average” value (Ctenocephalides felis; 60 mg/kg, week 6, control 4.8)?
**A.** The value was 30.0.

**Q.** And the “Avg. Dead on Treated, Average” value (Ctenocephalides felis; 60 mg/kg, week 7, control 4.8)?
**A.** Its value is 26.3.

**Q.** And the “Number of Dogs on Which Fleas were Controlled” value (shortened to “Number of Dogs”) (Ctenocephalides felis; Combination of Test 1 & 2, 60 mg/kg, week 0, of 43)?
**A.** Its value is 43 dogs.

**Q.** And the “Number of Dogs” value (Ctenocephalides felis; Combination of Test 1 & 2, 60 mg/kg, week 1, of 43)?
**A.** The value was 43 dogs.

**Q.** And the “Number of Dogs” value (Ctenocephalides felis; Combination of Test 1 & 2, 60 mg/kg, week 2, of 43)?
**A.** Its value is 43 dogs.

**Q.** What about the “Number of Dogs” value (Ctenocephalides felis; Combination of Test 1 & 2, 60 mg/kg, week 3, of 42) of the same molecule?
**A.** Its value is 42 dogs.

**Q.** And the “Number of Dogs” value (Ctenocephalides felis; Combination of Test 1 & 2, 60 mg/kg, week 4, of 42)?
**A.** The value was 41 dogs.

**Q.** And the “Number of Dogs” value (Ctenocephalides felis; Combination of Test 1 & 2, 60 mg/kg, week 5, of 42)?
**A.** The value was 40 dogs.

**Q.** And the “Number of Dogs” value (Ctenocephalides felis; Combination of Test 1 & 2, 60 mg/kg, week 6, of 41)?
**A.** The value was 34 dogs.

**Q.** And the “Number of Dogs” value (Ctenocephalides felis; Combination of Test 1 & 2, 60 mg/kg, week 7, of 41)?
**A.** The value was 24 dogs.

**Q.** And the “Number of Dogs” value (Ctenocephalides felis; Experiment 1, 60 mg/kg 2% pressurized spray, week 0, of 22)?
**A.** The value was 22 dogs.

**Q.** What about the “Number of Dogs” value (Ctenocephalides felis; Experiment 1, 60 mg/kg 2% pressurized spray, week 1, of 22) of the same molecule?
**A.** The value was 22 dogs.

**Q.** And the “Number of Dogs” value (Ctenocephalides felis; Experiment 1, 60 mg/kg 2% pressurized spray, week 2, of 22)?
**A.** The value was 22 dogs.

**Q.** What about the “Number of Dogs” value (Ctenocephalides felis; Experiment 1, 60 mg/kg 2% pressurized spray, week 3, of 22) of the same molecule?
**A.** The value was 22 dogs.

**Q.** And the “Number of Dogs” value (Ctenocephalides felis; Experiment 1, 60 mg/kg 2% pressurized spray, week 4, of 22)?
**A.** The value was 22 dogs.

**Q.** What about the “Number of Dogs” value (Ctenocephalides felis; Experiment 1, 60 mg/kg 2% pressurized spray, week 5, of 22) of the same molecule?
**A.** Its value is 22 dogs.

**Q.** And the “Number of Dogs” value (Ctenocephalides felis; Experiment 1, 60 mg/kg 2% pressurized spray, week 6, of 22**)?
**A.** The value was 20 dogs.

**Q.** And the “Number of Dogs” value (Ctenocephalides felis; Experiment 1, 60 mg/kg 2% pressurized spray, week 7, of 21)?
**A.** The value was 12 dogs.

**Q.** And the “Number of Dogs” value (Ctenocephalides felis; Experiment 2, 60 mg/kg 2% pressurized spray, week 0, of 21)?
**A.** The value was 21 dogs.

**Q.** What about the “Number of Dogs” value (Ctenocephalides felis; Experiment 2, 60 mg/kg 2% pressurized spray, week 1, of 21) of the same molecule?
**A.** The value was 21 dogs.

**Q.** And the “Number of Dogs” value (Ctenocephalides felis; Experiment 2, 60 mg/kg 2% pressurized spray, week 2, of 21)?
**A.** The value was 21 dogs.

**Q.** And the “Number of Dogs” value (Ctenocephalides felis; Experiment 2, 60 mg/kg 2% pressurized spray, week 3, of 20**)?
**A.** The value was 20 dogs.

**Q.** And the “Number of Dogs” value (Ctenocephalides felis; Experiment 2, 60 mg/kg 2% pressurized spray, week 4, of 20)?
**A.** The value was 19 dogs.

**Q.** And the “Number of Dogs” value (Ctenocephalides felis; Experiment 2, 60 mg/kg 2% pressurized spray, week 5, of 20)?
**A.** Its value is 18 dogs.

**Q.** And the “Number of Dogs” value (Ctenocephalides felis; Experiment 2, 60 mg/kg 2% pressurized spray, week 6, of 20)?
**A.** The value was 14 dogs.

**Q.** What about the “Number of Dogs” value (Ctenocephalides felis; Experiment 2, 60 mg/kg 2% pressurized spray, week 7, of 20) of the same molecule?
**A.** Its value is 12 dogs.

**Q.** What about the “Avg. Dead on Treated” value (Ctenocephalides felis; Test 1, 60 mg/kg, week 0, control 38) of the same molecule?
**A.** The value was 34.6.

**Q.** What about the “Avg. Dead on Treated” value (Ctenocephalides felis; Test 1, 60 mg/kg, week 1, control 10.4) of the same molecule?
**A.** The value was 38.2.

**Q.** And the “Avg. Dead on Treated” value (Ctenocephalides felis; Test 1, 60 mg/kg, week 2, control 3.4)?
**A.** Its value is 42.1.

**Q.** What about the “Avg. Dead on Treated” value (Ctenocephalides felis; Test 1, 60 mg/kg, week 3, control 4.6) of the same molecule?
**A.** Its value is 41.6.

**Q.** What about the “Avg. Dead on Treated” value (Ctenocephalides felis; Test 1, 60 mg/kg, week 4, control 5.4) of the same molecule?
**A.** Its value is 37.8.

**Q.** What about the “Avg. Dead on Treated” value (Ctenocephalides felis; Test 1, 60 mg/kg, week 5, control 5.0) of the same molecule?
**A.** Its value is 34.1.

**Q.** And the “Avg. Dead on Treated” value (Ctenocephalides felis; Test 1, 60 mg/kg, week 6, control 6.2)?
**A.** Its value is 34.1.

**Q.** What about the “Avg. Dead on Treated” value (Ctenocephalides felis; Test 1, 60 mg/kg, week 7, control 6.6) of the same molecule?
**A.** Its value is 30.8.

**Q.** What about the “Avg. Dead on Treated” value (Ctenocephalides felis; Test 2, 60 mg/kg, week 0, control .2) of the same molecule?
**A.** The value was 38.0.

**Q.** What about the “Avg. Dead on Treated” value (Ctenocephalides felis; Test 2, 60 mg/kg, week 1, control .8) of the same molecule?
**A.** Its value is 44.5.

**Q.** And the “Avg. Dead on Treated” value (Ctenocephalides felis; Test 2, 60 mg/kg, week 2, control 2.6)?
**A.** The value was 40.3.

**Q.** What about the “Avg. Dead on Treated” value (Ctenocephalides felis; Test 2, 60 mg/kg, week 3, control 5.0) of the same molecule?
**A.** The value was 40.7.

**Q.** And the “Avg. Dead on Treated” value (Ctenocephalides felis; Test 2, 60 mg/kg, week 4, control 5.0)?
**A.** The value was 43.6.

**Q.** And the “Avg. Dead on Treated” value (Ctenocephalides felis; Test 2, 60 mg/kg, week 5, control 6.2)?
**A.** The value was 37.9.

**Q.** And the “Avg. Dead on Treated” value (Ctenocephalides felis; Test 2, 60 mg/kg, week 6, control 3.5)?
**A.** Its value is 26.0.

**Q.** And the “Avg. Dead on Treated” value (Ctenocephalides felis; Test 2, 60 mg/kg, week 7, control 3.0)?
**A.** Its value is 21.8.
